Paper PMC11714206, “Massively Parallel Screening of Toll/Interleukin‐1 Receptor (TIR)‐Derived Peptides Reveals Multiple Toll‐Like Receptors (TLRs)‐Targeting Immunomodulatory Peptides” (Advanced Science, 2024)

Molecular target: T1, MAL^TIR (Homo sapiens, UniProt P58753)
T1 construct: MAL (residues 79–221); 6xHis; made in house; host or cells: E. coli BL21 (DE3)
Assay: T‐Surf phage library (P8 and P3) selection against MAL^TIR, four rounds, NGS read counts
Type: binding
Conditions: for P8_MAL Rank (after) / P8_MAL Rank (before): P8 library; for P3_MAL Rank (after) / P3_MAL Rank (before): P3 library; for Population: P3_MAL pool: P3 T-Surf phage library, 4th round of selection against MAL TIR, share of NGS reads
Protocol: T‐Surf libraries were screened against the immobilized TIR domains of two major human TLR adaptor proteins, MAL^TIR and MyD88^TIR, allowing cross‐species selection of TIR‐binding motifs with 190 946 TIR‐derived peptides in a single binding assay (Scheme 1). Enriched phage pools from the fourth round of selection were analyzed using NGS after barcoding the peptide‐coding regions of the phage pools.
Phage display screening was performed by coating two wells of a 96‐well plate (Maxisorp, Thermo Fisher Scientific) with 100 µL of 5 µg mL^−1 TIR domains overnight; then, the coated wells were blocked with 200 µL of blocking buffer (0.2% BSA in PBS) and set aside for 1 h at 4 °C with gentle shaking. Next, 100 µL of the phage library was added to the wells and incubated for 1 h at room temperature (RT; 20 – 22 °C) with gentle shaking. The plate was washed four times with PBS containing 0.5% Tween‐20; the bound phages were eluted by adding 100 µL of 100 mM HCl to each well. The elute was neutralized with 10 µL of 1.0 M Tris‐HCl (pH 11.0). E. coli TG1 cells were grown to the log phase (A600 = ≈0.6), and 1 mL of the culture was incubated with 100 µL of the eluted phages for 30 min at 37 °C, with shaking at 200 rpm. Next, 1 µL of M13KO7 helper phages was added, followed by incubation for 45 min at 37 °C, with shaking. Subsequently, the cells were transferred to 25 mL of 2× yeast extract tryptone/carbenicillin/kanamycin medium and incubated overnight at 37 °C with shaking at 200 rpm. The amplified phages were precipitated with 20% PEG‐8000/2.5 M NaCl to be used for the next round of selection.
The naïve T‐Surf libraries in P8 and P3 and the enriched phage pools after four rounds were barcoded for NGS as previously described.^[ [59] ^] Briefly, 5 µL of the phage pool was used as a template for 20 cycles of a 50 µL PCR reaction using […] each of forward and reverse barcoded primers and PrimeSTAR Max DNA Polymerase. The PCR products were purified using Expin Gel SV (GeneAll). The NGS samples were quantified using qPCR, following the qPCR Quantification Protocol Guide (KAPA Library Quantification kits for Illumina Sequencing Platform), and qualified using the TapeStation High Sensitivity D1000 ScreenTape (Agilent Technologies). The indexed libraries were further sequenced by Macrogen (Seoul, Republic of Korea) using the NovaSeq platform (Illumina) with 100 bp paired‐end reads. The reads were demultiplexed by barcodes and filtered for an average Phred quality score of at least 30, followed by trimming the flanking consensus sequences using Cutadapt (version 2.3). Peptide sequence populations were analyzed according to the read counts.

[1] = 4R selection against MAL, rank after grouping
[2] = 4R selection against MAL, rank before grouping
[3] = selection against MAL, rank after grouping
[4] = selection against MAL, rank before grouping
[5] = P8_MAL: rank by count after grouping
[6] = P8_MAL: rank by count before grouping
[7] = selection against MAL TIR, rank by count after grouping
[8] = selection against MAL TIR, rank by count before grouping
[9] = selection against MAL, rank by count after grouping
[10] = selection against MAL, rank by count before grouping
[11] = P3_MAL: rank by count after grouping
[12] = P3_MAL: rank by count before grouping

T1 sequence (P58753 79-221): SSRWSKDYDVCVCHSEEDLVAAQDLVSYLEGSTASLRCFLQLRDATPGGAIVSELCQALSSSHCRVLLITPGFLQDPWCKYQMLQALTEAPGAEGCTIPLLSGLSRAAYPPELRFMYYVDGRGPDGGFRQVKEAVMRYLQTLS

Sequence: LFFWASLNKLLRSDGR
- P8_MAL Rank (after) [1]: 648
- P8_MAL Rank (before) [2]: 2065

Sequence: SLRKNLLSNLIEECKR
- P3_MAL Rank (after) [3]: 495
- P3_MAL Rank (before) [4]: 3097

Sequence: AFFWAQLKSVLGNPPV
- Rank (after) [5]: 424
- Rank (before) [6]: 1661

Sequence: AFLYTFLKNLTHTPTF
- Rank (after) [5]: 410
- Rank (before) [6]: 1876

Sequence: DPQDLEWFYERLFSQM
- P8_MAL Rank (after) [7]: 234
- P8_MAL Rank (before) [8]: 876

Sequence: NQWRNALTAEANLSGW
- Population: 0.00413%

Sequence: AFLYTFLKNLPHPTNI
- P8_MAL Rank (after) [9]: 709
- P8_MAL Rank (before) [10]: 1873

Sequence: YAFTSHLYDRLQRSGI
- P3_MAL Rank (after) [1]: 606
- P3_MAL Rank (before) [2]: 1470

Sequence: YAFTGYLHRYLVQRGG
- Rank (after) [11]: 445
- Rank (before) [12]: 1356

Sequence: DTILKKGESIAPELLG
- P8_MAL Rank (after) [3]: 548
- P8_MAL Rank (before) [4]: 2000

Sequence: LKVESWLQTLAKAGKL
- P3_MAL Rank (after) [9]: 763
- P3_MAL Rank (before) [10]: 2262

Sequence: RNNFFGHLYHALYRIG
- P8_MAL Rank (after) [9]: 685
- P8_MAL Rank (before) [10]: 2261

Sequence: ACFWEQRPTVLGKPPM
- Rank (after) [5]: 417
- Rank (before) [6]: 1934

Sequence: LNWGDPYFWRKLRYAM
- Rank (after) [11]: 185
- Rank (before) [12]: 2196

Sequence: AFLDPFLINLIQASIL
- P8_MAL Rank (after) [1]: 616
- P8_MAL Rank (before) [2]: 1968

Sequence: KERLHQWKLALTQAA
- P3_MAL Rank (after) [3]: 526
- P3_MAL Rank (before) [4]: 3601

Sequence: NQWRNALTAEAKLSGW
- P3_MAL Rank (after) [7]: 268
- P3_MAL Rank (before) [8]: 3414

Sequence: WFYERLFSLILRATKV
- Rank (after) [5]: 148
- Rank (before) [6]: 1160

Sequence: NQWRNALPAAANLRGW
- P3_MAL Rank (after) [7]: 286
- P3_MAL Rank (before) [8]: 3349

Sequence: TFLGPLLNALVQAGIH
- Rank (after) [5]: 388
- Rank (before) [6]: 2536

Sequence: SSFREGLGLLLELGKK
- P3_MAL Rank (after) [3]: 535
- P3_MAL Rank (before) [4]: 3175

Sequence: NQWRNALTAAANLIGW
- Population: 0.00413%

Sequence: LFLWESLKHLLRSDGR
- P8_MAL Rank (after) [7]: 232
- P8_MAL Rank (before) [8]: 2146

Sequence: LFYEESLKQLLRANDR
- P8_MAL Rank (after) [7]: 276
- P8_MAL Rank (before) [8]: 1101

Sequence: RGFLSHLRHLLQAKDP
- P3_MAL Rank (after) [7]: 193
- P3_MAL Rank (before) [8]: 2405

Sequence: ALPYTFLINLTHPTTF
- P8_MAL Rank (after) [3]: 503
- P8_MAL Rank (before) [4]: 1961

Sequence: YFLHFLLFSLPATEYI
- P8_MAL Rank (after) [1]: 663
- P8_MAL Rank (before) [2]: 1473

Sequence: SLLYDHLRCWAFVRF
- P8_MAL Rank (after) [3]: 501
- P8_MAL Rank (before) [4]: 2512

Sequence: LKWGDPYFWRKIRYAM
- P3_MAL Rank (after) [3]: 530
- P3_MAL Rank (before) [4]: 2248

Sequence: TLLCHLYNALVQAGIH
- P8_MAL Rank (after) [7]: 239
- P8_MAL Rank (before) [8]: 2637

Sequence: AFLYTFLKNLTHPTTF
- Rank (after) [5]: 97
- Rank (before) [6]: 1875

Sequence: PYLRTQVLNYLMRTKN
- P3_MAL Rank (after) [3]: 499
- P3_MAL Rank (before) [4]: 2630

Sequence: CFLQNLCYALTYRPAT
- P3_MAL Rank (after) [1]: 637
- P3_MAL Rank (before) [2]: 1215

Sequence: SKDYAQSAWALAEHEKR
- P3_MAL Rank (after) [1]: 603
- P3_MAL Rank (before) [2]: 3225
